Source: paper PMC12475274, “Harnessing indole scaffolds to identify small-molecule IRE1α inhibitors modulating XBP1 mRNA splicing” (Nature Communications, 2025)

Columns and labels:
Experiment in all cases: Kinase profiling (SelectScreen), ZLYTE
Type in all cases: biochemical
ERBB2 (HER2) = ERBB2 (HER2) (Homo sapiens, UniProt P04626)
Procedure: (§1) Kinase profiling was conducted by the SelectScreen Kinase Profiling Services (Thermo Fisher), using Z′-LYTE, Adapta, or LanthaScreen Eu Kinase Binding Assay for different kinases. The kinome phylogenetic tree was generated using the KinMap web portal.

TEK (Tie2) = TEK (Tie2) (Homo sapiens, UniProt Q02763)
Procedure: as §1

FRAP1 (mTOR) = FRAP1 (mTOR) (Homo sapiens, UniProt P42345)
Procedure: as §1

CAMK1D (CaMKI delta) = CAMK1D (CaMKI delta) (Homo sapiens, UniProt Q8IU85)
Procedure: as §1

PLK1 = PLK1 (Homo sapiens, UniProt P53350)
Procedure: as §1

MET (cMet) = MET (cMet) (Homo sapiens, UniProt P08581)
Procedure: as §1

PRKCB1 (PKC beta I) = PRKCB1 (PKC beta I) (Homo sapiens, UniProt P05771)
Procedure: as §1

DYRK3 = DYRK3 (Homo sapiens, UniProt O43781)
Procedure: as §1

KIT = KIT (Homo sapiens, UniProt P10721)
Procedure: as §1

MAP2K1 (MEK1) = MAP2K1 (MEK1) (Homo sapiens, UniProt Q02750); details: IA107 at 5 μM; ATP 100 μM
Procedure: as §1

KDR (VEGFR2) = KDR (VEGFR2) (Homo sapiens, UniProt P35968)
Procedure: as §1

INSR = INSR (Homo sapiens, UniProt P06213)
Procedure: as §1

RPS6KB1 (p70S6K) = RPS6KB1 (p70S6K) (Homo sapiens, UniProt P23443)
Procedure: as §1

AMPK A1/B1/G1 = AMPK A1/B1/G1 (Homo sapiens, UniProt Q13131)
Procedure: as §1

EGFR (ErbB1) = EGFR (ErbB1) (Homo sapiens, UniProt P00533)
Procedure: as §1

GSK3B (GSK3 beta) = GSK3B (GSK3 beta) (Homo sapiens, UniProt P49841)
Procedure: as §1

MAPK8 (JNK1) = MAPK8 (JNK1) (Homo sapiens, UniProt P45983); details: IA107 at 5 μM; ATP 100 μM
Procedure: as §1

STK4 (MST1) = STK4 (MST1) (Homo sapiens, UniProt Q13043)
Procedure: as §1

FLT3 = FLT3 (Homo sapiens, UniProt P36888)
Procedure: as §1

CHEK1 (CHK1) = CHEK1 (CHK1) (Homo sapiens, UniProt O14757)
Procedure: as §1

PAK4 = PAK4 (Homo sapiens, UniProt O96013)
Procedure: as §1

TAOK2 (TAO1) = TAOK2 (TAO1) (Homo sapiens, UniProt Q9UL54)
Procedure: as §1

AURKA (Aurora A) = AURKA (Aurora A) (Homo sapiens, UniProt O14965)
Procedure: as §1

SGKL (SGK3) = SGKL (SGK3) (Homo sapiens, UniProt Q96BR1)
Procedure: as §1

MAPK1 (ERK2) = MAPK1 (ERK2) (Homo sapiens, UniProt P28482)
Procedure: as §1

IKBKE (IKK epsilon) = IKBKE (IKK epsilon) (Homo sapiens, UniProt Q14164)
Procedure: as §1

ROCK1 = ROCK1 (Homo sapiens, UniProt Q13464)
Procedure: as §1

MAP2K6 (MKK6) = MAP2K6 (MKK6) (Homo sapiens, UniProt P52564); details: IA107 at 5 μM; ATP 100 μM
Procedure: as §1

CSNK1G2 (CK1 gamma 2) = CSNK1G2 (CK1 gamma 2) (Homo sapiens, UniProt P78368)
Procedure: as §1

RET = RET (Homo sapiens, UniProt P07949)
Procedure: as §1

IGF1R = IGF1R (Homo sapiens, UniProt P08069)
Procedure: as §1

MAPK14 (p38 alpha) = MAPK14 (p38 alpha) (Homo sapiens, UniProt Q16539); details: IA107 at 5 μM; ATP 100 μM
Procedure: as §1

SYK = SYK (Homo sapiens, UniProt P43405)
Procedure: as §1

SRC = SRC (Homo sapiens, UniProt P12931)
Procedure: as §1

DAPK3 (ZIPK) = DAPK3 (ZIPK) (Homo sapiens, UniProt O43293)
Procedure: as §1

FGFR1 = FGFR1 (Homo sapiens, UniProt P11362)
Procedure: as §1

PIM1 = PIM1 (Homo sapiens, UniProt P11309)
Procedure: as §1

MARK2 = MARK2 (Homo sapiens, UniProt Q7KZI7)
Procedure: as §1

JAK3 = JAK3 (Homo sapiens, UniProt P52333)
Procedure: as §1

CSNK2A1 (CK2 alpha 1) = CSNK2A1 (CK2 alpha 1) (Homo sapiens, UniProt P68400)
Procedure: as §1

Chain of RPS6KB1 (p70S6K) (P23443 whole entry): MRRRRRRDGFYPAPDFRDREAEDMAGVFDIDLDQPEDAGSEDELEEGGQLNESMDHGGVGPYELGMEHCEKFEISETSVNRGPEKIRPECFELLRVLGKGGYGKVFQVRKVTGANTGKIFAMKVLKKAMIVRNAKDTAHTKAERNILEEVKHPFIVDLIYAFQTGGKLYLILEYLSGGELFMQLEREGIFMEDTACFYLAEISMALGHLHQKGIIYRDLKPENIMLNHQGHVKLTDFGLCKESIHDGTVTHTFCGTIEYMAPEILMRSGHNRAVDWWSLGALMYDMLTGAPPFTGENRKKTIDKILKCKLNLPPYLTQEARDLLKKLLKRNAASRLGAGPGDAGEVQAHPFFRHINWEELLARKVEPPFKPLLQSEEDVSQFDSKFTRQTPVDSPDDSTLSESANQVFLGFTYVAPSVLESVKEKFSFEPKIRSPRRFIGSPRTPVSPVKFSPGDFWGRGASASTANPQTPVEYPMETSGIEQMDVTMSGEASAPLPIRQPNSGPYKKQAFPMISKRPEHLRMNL
Chain of IGF1R (P08069 31-1367): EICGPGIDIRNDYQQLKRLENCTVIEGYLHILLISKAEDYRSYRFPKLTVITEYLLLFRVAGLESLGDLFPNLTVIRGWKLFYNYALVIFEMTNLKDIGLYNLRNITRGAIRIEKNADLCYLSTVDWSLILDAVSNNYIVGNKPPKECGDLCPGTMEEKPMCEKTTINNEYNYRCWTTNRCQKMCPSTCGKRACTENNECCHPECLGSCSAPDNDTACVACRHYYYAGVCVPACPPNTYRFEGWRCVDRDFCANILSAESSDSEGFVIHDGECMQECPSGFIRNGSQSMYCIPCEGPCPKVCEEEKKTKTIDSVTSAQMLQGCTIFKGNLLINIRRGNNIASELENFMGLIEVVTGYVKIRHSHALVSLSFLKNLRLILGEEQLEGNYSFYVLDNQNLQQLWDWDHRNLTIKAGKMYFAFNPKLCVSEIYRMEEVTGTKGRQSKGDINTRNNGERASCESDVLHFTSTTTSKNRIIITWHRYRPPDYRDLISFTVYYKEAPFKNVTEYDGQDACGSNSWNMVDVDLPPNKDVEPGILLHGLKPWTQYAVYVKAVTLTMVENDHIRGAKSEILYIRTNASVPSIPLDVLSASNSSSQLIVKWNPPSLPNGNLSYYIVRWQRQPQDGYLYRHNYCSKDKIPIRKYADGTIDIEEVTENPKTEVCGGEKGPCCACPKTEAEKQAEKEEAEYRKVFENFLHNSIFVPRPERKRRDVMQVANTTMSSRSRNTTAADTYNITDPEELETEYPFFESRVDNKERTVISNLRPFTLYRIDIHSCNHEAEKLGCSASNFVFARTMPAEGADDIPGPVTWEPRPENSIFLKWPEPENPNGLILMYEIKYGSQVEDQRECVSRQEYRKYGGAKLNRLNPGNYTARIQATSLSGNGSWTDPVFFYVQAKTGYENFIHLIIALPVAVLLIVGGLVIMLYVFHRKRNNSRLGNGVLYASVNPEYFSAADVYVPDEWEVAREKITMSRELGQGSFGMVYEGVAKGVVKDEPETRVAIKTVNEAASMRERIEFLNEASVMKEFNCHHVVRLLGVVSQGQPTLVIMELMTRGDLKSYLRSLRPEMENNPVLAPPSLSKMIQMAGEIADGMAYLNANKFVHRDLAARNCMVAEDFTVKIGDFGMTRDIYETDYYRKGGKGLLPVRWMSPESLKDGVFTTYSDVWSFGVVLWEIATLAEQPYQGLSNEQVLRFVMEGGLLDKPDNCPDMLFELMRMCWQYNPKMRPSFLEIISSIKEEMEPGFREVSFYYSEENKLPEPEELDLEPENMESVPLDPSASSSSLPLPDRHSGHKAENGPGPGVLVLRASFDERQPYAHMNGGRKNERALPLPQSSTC
Chain of INSR (P06213 28-1382): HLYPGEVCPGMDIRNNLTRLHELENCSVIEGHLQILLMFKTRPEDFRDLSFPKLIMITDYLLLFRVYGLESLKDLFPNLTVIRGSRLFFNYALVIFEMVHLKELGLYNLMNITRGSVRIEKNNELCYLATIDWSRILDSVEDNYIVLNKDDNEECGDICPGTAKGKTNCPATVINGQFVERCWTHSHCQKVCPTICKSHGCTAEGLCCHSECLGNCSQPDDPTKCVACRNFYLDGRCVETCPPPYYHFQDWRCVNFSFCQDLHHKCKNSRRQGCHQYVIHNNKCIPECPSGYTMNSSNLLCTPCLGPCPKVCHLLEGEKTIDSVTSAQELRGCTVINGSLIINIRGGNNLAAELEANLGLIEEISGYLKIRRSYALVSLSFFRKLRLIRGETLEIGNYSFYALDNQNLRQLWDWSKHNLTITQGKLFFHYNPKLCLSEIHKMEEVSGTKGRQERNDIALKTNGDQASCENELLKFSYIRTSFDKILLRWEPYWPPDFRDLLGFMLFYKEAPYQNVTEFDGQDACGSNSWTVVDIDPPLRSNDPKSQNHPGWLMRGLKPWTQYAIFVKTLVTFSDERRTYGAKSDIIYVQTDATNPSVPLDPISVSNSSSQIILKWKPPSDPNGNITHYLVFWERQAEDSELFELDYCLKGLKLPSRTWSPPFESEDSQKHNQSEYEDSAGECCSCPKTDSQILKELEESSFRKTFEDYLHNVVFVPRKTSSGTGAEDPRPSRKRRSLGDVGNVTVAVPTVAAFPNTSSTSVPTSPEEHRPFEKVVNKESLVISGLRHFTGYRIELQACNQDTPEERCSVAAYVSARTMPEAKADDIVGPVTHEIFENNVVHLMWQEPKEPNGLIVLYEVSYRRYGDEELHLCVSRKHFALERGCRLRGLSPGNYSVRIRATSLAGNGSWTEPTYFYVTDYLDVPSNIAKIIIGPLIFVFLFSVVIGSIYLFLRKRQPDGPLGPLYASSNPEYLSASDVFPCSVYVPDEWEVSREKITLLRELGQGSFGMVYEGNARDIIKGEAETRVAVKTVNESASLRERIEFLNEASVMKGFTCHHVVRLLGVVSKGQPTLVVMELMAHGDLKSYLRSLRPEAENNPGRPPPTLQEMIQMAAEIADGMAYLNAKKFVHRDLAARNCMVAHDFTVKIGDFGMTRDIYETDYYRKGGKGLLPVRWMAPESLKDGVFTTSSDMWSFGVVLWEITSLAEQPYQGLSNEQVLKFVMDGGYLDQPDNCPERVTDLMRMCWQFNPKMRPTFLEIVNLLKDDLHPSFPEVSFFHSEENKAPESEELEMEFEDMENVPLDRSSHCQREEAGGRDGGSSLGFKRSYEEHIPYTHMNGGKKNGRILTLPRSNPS
Chain of FLT3 (P36888 27-993): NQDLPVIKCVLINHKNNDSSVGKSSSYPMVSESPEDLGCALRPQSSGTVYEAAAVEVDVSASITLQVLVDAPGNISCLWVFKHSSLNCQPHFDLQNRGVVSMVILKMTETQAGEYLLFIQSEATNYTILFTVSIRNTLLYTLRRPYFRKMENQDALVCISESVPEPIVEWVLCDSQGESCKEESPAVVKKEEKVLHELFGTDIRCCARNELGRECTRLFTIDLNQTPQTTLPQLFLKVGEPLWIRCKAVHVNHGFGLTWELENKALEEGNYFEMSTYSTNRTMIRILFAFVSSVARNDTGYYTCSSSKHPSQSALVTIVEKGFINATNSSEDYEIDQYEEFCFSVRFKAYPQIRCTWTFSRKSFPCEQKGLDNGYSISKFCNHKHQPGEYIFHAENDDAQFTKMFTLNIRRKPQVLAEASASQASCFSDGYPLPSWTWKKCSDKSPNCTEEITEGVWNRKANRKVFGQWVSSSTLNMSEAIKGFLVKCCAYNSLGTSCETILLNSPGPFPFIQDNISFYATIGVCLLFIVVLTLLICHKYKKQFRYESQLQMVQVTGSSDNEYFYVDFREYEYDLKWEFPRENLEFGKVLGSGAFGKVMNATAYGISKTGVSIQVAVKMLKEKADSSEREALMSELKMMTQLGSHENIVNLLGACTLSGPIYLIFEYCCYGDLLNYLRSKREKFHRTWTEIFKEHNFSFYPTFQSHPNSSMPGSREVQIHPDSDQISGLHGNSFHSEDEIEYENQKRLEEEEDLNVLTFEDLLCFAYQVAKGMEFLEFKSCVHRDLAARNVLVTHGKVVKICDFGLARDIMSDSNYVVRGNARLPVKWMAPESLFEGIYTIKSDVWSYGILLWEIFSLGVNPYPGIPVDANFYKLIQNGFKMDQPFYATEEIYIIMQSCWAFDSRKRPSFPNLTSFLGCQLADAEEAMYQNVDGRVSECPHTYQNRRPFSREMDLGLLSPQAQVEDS
Chain of PIM1 (P11309 whole entry): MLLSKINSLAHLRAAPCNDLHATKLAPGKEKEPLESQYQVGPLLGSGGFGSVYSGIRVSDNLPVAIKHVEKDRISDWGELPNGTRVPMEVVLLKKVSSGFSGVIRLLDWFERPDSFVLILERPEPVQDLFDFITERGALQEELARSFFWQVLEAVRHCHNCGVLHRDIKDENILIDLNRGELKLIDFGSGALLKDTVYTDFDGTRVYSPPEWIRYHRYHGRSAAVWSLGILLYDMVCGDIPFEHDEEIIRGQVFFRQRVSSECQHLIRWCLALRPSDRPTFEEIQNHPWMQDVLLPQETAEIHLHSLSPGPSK
Chain of DYRK3 (O43781 whole entry): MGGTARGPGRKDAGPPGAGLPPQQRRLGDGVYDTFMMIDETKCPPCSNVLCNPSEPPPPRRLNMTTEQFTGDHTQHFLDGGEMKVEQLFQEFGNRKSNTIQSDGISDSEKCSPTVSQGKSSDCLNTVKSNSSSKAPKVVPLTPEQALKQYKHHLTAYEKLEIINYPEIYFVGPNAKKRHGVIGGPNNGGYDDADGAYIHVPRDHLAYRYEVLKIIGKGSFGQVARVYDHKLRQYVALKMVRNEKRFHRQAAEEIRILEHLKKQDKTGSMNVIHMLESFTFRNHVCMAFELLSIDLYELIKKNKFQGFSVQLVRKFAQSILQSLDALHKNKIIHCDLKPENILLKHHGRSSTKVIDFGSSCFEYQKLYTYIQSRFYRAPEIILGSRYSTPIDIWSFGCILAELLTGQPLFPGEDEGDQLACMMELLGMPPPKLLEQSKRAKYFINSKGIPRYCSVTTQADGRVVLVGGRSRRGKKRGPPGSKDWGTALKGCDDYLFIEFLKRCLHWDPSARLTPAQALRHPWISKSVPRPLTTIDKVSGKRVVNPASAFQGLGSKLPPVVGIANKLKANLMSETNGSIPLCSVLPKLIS

## Cc1c(CCC(=O)O)c2cc(Br)ccc2n1C(=O)c1ccccc1 [IA107]
ERBB2 (HER2)
  inhibition at 5 µM: -3%
TEK (Tie2)
  inhibition at 5 µM: 6%
FRAP1 (mTOR)
  inhibition at 5 µM: 5%
CAMK1D (CaMKI delta)
  inhibition at 5 µM: 8%
PLK1
  inhibition at 5 µM: 3%
MET (cMet)
  inhibition at 5 µM: 3%
PRKCB1 (PKC beta I)
  inhibition at 5 µM: 7%
DYRK3
  inhibition at 5 µM: 2%
KIT
  inhibition at 5 µM: 0%
MAP2K1 (MEK1)
  inhibition at 5 µM: 3%
KDR (VEGFR2)
  inhibition at 5 µM: 1%
INSR
  inhibition at 5 µM: 5%
RPS6KB1 (p70S6K)
  inhibition at 5 µM: 3%
AMPK A1/B1/G1
  inhibition at 5 µM: 9%
EGFR (ErbB1)
  inhibition at 5 µM: 5%
GSK3B (GSK3 beta)
  inhibition at 5 µM: 21%
MAPK8 (JNK1)
  inhibition at 5 µM: -8%
STK4 (MST1)
  inhibition at 5 µM: 0%
FLT3
  inhibition at 5 µM: 6%
CHEK1 (CHK1)
  inhibition at 5 µM: 10%
PAK4
  inhibition at 5 µM: -3%
TAOK2 (TAO1)
  inhibition at 5 µM: -4%
AURKA (Aurora A)
  inhibition at 5 µM: 5%
SGKL (SGK3)
  inhibition at 5 µM: 1%
MAPK1 (ERK2)
  inhibition at 5 µM: 2%
IKBKE (IKK epsilon)
  inhibition at 5 µM: 2%
ROCK1
  inhibition at 5 µM: 1%
MAP2K6 (MKK6)
  inhibition at 5 µM: 2%
CSNK1G2 (CK1 gamma 2)
  inhibition at 5 µM: 6%
RET
  inhibition at 5 µM: 9%
IGF1R
  inhibition at 5 µM: 3%
MAPK14 (p38 alpha)
  inhibition at 5 µM: 6%
SYK
  inhibition at 5 µM: 3%
SRC
  inhibition at 5 µM: 4%
DAPK3 (ZIPK)
  inhibition at 5 µM: 1%
FGFR1
  inhibition at 5 µM: 4%
PIM1
  inhibition at 5 µM: 39%
MARK2
  inhibition at 5 µM: 8%
JAK3
  inhibition at 5 µM: 0%
CSNK2A1 (CK2 alpha 1)
  inhibition at 5 µM: 6%
